The structures appear in SMILES notation.

For the data set the following is noted: pH 7.4.
In the case of `CCn1c(=O)c2ccccc2n2c(=S)[nH]nc12` [Compound 20, 4-Ethyl-1-thioxo-2,4-dihydro-[1,2,4]triazolo[4,3-a]quinazolin-5(1H)-one], the “PAMPA” value is 4270 nm/s.

`COc1ccc(CC(=O)NCCCn2c(=O)c3cc(F)ccc3n3c(=S)[nH]nc23)cc1` [Compound 130, N-(3-(7-Fluoro-5-oxo-1-thioxo-1,2-dihydro-[1,2,4]triazolo[4,3-a]-quinazolin-4(5H)-yl)propyl)-2-(4-methoxyphenyl)acetamide]: the “PAMPA” value is 2330 nm/s.

With `CC(C)(C)OC(=O)NCCCCCC(=O)NCCCn1c(=O)c2cc(F)ccc2n2c(=S)[nH]nc12` [Compound 101, tert-Butyl (6-((3-(7-fluoro-5-oxo-1-thioxo-1,2-dihydro-[1,2,4]-triazolo[4,3-a]quinazolin-4(5H)-yl)propyl)amino)-6-oxohexyl)-carbamate], the “PAMPA” value came to 4050 nm/s.

Consider `O=c1c2ccc(F)cc2n2c(=S)[nH]nc2n1CCc1ccccc1` [Compound 47, 8-Fluoro-4-phenethyl-1-thioxo-2,4-dihydro-[1,2,4]triazolo[4,3-a]quinazolin-5(1H)-one], for which the “PAMPA” value came to 910 nm/s.

With `O=c1c2cc(F)ccc2n2c(=S)[nH]nc2n1CCc1cccnc1` [Compound 84, 7-Fluoro-4-(2-(pyridin-3-yl)ethyl)-1-thioxo-2,4-dihydro-[1,2,4]-triazolo[4,3-a]quinazolin-5(1H)-one], the “PAMPA” value was below 10 nm/s.

Regarding `CC(CN(C)C)n1c(=O)c2cc(F)ccc2n2c(=S)[nH]nc12` (stereo not shown) [Compound 71, 4-(1-(Dimethylamino)propan-2-yl)-7-fluoro-1-thioxo-2,4-dihydro-[1,2,4]triazolo[4,3-a]quinazolin-5(1H)-one], the “PAMPA” value was 1860 nm/s.

Turning to `O=c1c2cc(F)ccc2n2cnnc2n1CCc1ccccc1` [Compound 18, 7-Fluoro-4-phenethyl-[1,2,4]triazolo[4,3-a]quinazolin-5(4H)-one], the “PAMPA” value amounted to 9240 nm/s.

Consider `O=c1c2cc(F)ccc2n2c(=S)[nH]nc2n1CCN1CCCCC1` [Compound 88, 7-Fluoro-4-(2-(piperidin-1-yl)ethyl)-1-thioxo-2,4-dihydro-[1,2,4]-triazolo[4,3-a]quinazolin-5(1H)-one], for which the “PAMPA” value is 3580 nm/s.

As for `CC(C)(C)OC(=O)NC1CCC(C(=O)NCCCn2c(=O)c3cc(F)ccc3n3c(=S)[nH]nc23)CC1` (stereo not shown) [Compound 110, tert-Butyl (4-((3-(7-fluoro-5-oxo-1-thioxo-1,2-dihydro-[1,2,4]-triazolo[4,3-a]quinazolin-4(5H)-yl)propyl)carbamoyl)cyclohexyl)-carbamate], the “PAMPA” value came to 3300 nm/s.

On to `CN(C)c1ccc2c(c1)c(=O)n(CCc1ccccc1)c1n[nH]c(=S)n21` [Compound 45, 7-(Dimethylamino)-4-phenethyl-1-thioxo-2,4-dihydro-[1,2,4]-triazolo[4,3-a]quinazolin-5(1H)-one], for which the “PAMPA” value came out at 3560 nm/s.

`O=c1c2cc(F)ccc2n2c(=S)[nH]nc2n1Cc1ccccc1` [Compound 52, 4-Benzyl-7-fluoro-1-thioxo-2,4-dihydro-[1,2,4]triazolo[4,3-a]-quinazolin-5(1H)-one]: the “PAMPA” value amounted to 8410 nm/s.

Consider `O=C(Cc1cccc(Cl)c1)NCCCn1c(=O)c2cc(F)ccc2n2c(=S)[nH]nc12` [Compound 124, 2-(3-Chlorophenyl)-N-(3-(7-fluoro-5-oxo-1-thioxo-1,2-dihydro-[1,2,4]triazolo[4,3-a]quinazolin-4(5H)-yl)propyl)acetamide], for which the “PAMPA” value came to 8610 nm/s.

As to `O=c1c2cccc(F)c2n2c(=S)[nH]nc2n1CCc1ccccc1` [Compound 48, 9-Fluoro-4-phenethyl-1-thioxo-2,4-dihydro-[1,2,4]triazolo[4,3-a]quinazolin-5(1H)-one], the “PAMPA” value amounted to 1410 nm/s.

In the case of `N#Cc1ccccc1CC(=O)NCCCn1c(=O)c2cc(F)ccc2n2c(=S)[nH]nc12` [Compound 133, 2-(2-Cyanophenyl)-N-(3-(7-fluoro-5-oxo-1-thioxo-1,2-dihydro-[1,2,4]triazolo[4,3-a]quinazolin-4(5H)-yl)propyl)acetamide], the “PAMPA” value was 1560 nm/s.

In the case of `CNC(=S)N1CN(CCc2ccccc2)C(=O)c2cc(F)ccc21` [Compound 62, 6-Fluoro-N-methyl-4-oxo-3-phenethyl-3,4-dihydroquinazoline-1(2H)-carbothioamide], the “PAMPA” value came out at 1610 nm/s.

Regarding `O=C(Cc1ccccc1)NCCCn1c(=O)c2cc(F)ccc2n2c(=S)[nH]nc12` [Compound 120, N-(3-(7-Fluoro-5-oxo-1-thioxo-1,2-dihydro-[1,2,4]triazolo[4,3-a]-quinazolin-4(5H)-yl)propyl)-2-phenylacetamide], the “PAMPA” value came out at 2480 nm/s.

Regarding `O=c1c2ccncc2n2c(=S)[nH]nc2n1CCc1ccccc1` [Compound 50, 4-Phenethyl-1-thioxo-2,4-dihydropyrido[4,3-e][1,2,4]triazolo-[4,3-a]pyrimidin-5(1H)-one], the “PAMPA” value came out at 2020 nm/s.

For the compound `O=c1c2cc(F)ccc2n2c(=S)[nH]nc2n1CCN1CCOCC1` [Compound 90, 7-Fluoro-4-(2-morpholinoethyl)-1-thioxo-2,4-dihydro-[1,2,4]-triazolo[4,3-a]quinazolin-5(1H)-one], the “PAMPA” value is 670 nm/s.

In the case of `CC(C)(C)OC(=O)Nc1ccc(CC(=O)NCCCn2c(=O)c3cc(F)ccc3n3c(=S)[nH]nc23)cc1` [Compound 135, tert-Butyl (4-(2-((3-(7-Fluoro-5-oxo-1-thioxo-1,2-dihydro-[1,2,4]-triazolo[4,3-a]quinazolin-4(5H)-yl)propyl)amino)-2-oxoethyl)-phenyl)carbamate], the “PAMPA” value was 9100 nm/s.

On to `O=C(Cc1cccnc1)NCCCn1c(=O)c2cc(F)ccc2n2c(=S)[nH]nc12` [Compound 137, N-(3-(7-Fluoro-5-oxo-1-thioxo-1,2-dihydro-[1,2,4]triazolo[4,3-a]-quinazolin-4(5H)-yl)propyl)-2-(pyridine-3-yl)acetamide], for which the “PAMPA” value was determined as 210 nm/s.

As for `Cc1ccc(CC(=O)NCCCn2c(=O)c3cc(F)ccc3n3c(=S)[nH]nc23)cc1` [Compound 126, N-(3-(7-Fluoro-5-oxo-1-thioxo-1,2-dihydro-[1,2,4]triazolo[4,3-a]-quinazolin-4(5H)-yl)propyl)-2-(p-tolyl)acetamide], the “PAMPA” value turned out to be 6210 nm/s.

Consider `O=c1c2cc(F)ccc2n2c(=S)[nH]nc2n1CCc1ccc(Cl)cc1` [Compound 82, 4-(4-Chlorophenethyl)-7-fluoro-1-thioxo-2,4-dihydro-[1,2,4]-triazolo[4,3-a]quinazolin-5(1H)-one], for which the “PAMPA” value was below 10 nm/s.

`O=C(Cc1ccc(Br)cc1)NCCCn1c(=O)c2cc(F)ccc2n2c(=S)[nH]nc12` [Compound 125, 2-(4-Bromophenyl)-N-(3-(7-fluoro-5-oxo-1-thioxo-1,2-dihydro-[1,2,4]triazolo[4,3-a]quinazolin-4(5H)-yl)propyl)acetamide]: the “PAMPA” value was 7670 nm/s.

With `O=C(Cc1cccc(F)c1)NCCCn1c(=O)c2cc(F)ccc2n2c(=S)[nH]nc12` [Compound 122, N-(3-(7-Fluoro-5-oxo-1-thioxo-1,2-dihydro-[1,2,4]triazolo[4,3-a]-quinazolin-4(5H)-yl)propyl)-2-(3-fluorophenyl)acetamide], the “PAMPA” value worked out at 3640 nm/s.

On to `O=C(NCCCn1c(=O)c2cc(F)ccc2n2c(=S)[nH]nc12)c1ccccc1` [Compound 74, N-(3-(7-Fluoro-5-oxo-1-thioxo-1,2-dihydro-[1,2,4]triazolo[4,3-a]-quinazolin-4(5H)-yl)propyl)benzamide], for which the “PAMPA” value was 2670 nm/s.

Turning to `CC(=O)Nc1ccc2c(c1)c(=O)n(CCc1ccccc1)c1n[nH]c(=S)n21` [Compound 44, N-(5-Oxo-4-phenethyl-1-thioxo-1,2,4,5-tetrahydro-[1,2,4]-triazolo[4,3-a]quinazolin-7-yl)acetamide], the “PAMPA” value amounted to 2530 nm/s.

`NS(=O)(=O)CCCC(=O)NCCCn1c(=O)c2cc(F)ccc2n2c(=S)[nH]nc12` [Compound 107, N-(3-(7-Fluoro-5-oxo-1-thioxo-1,2-dihydro-[1,2,4]triazolo[4,3-a]-quinazolin-4(5H)-yl)propyl)-4-sulfamoylbutanamide]: the “PAMPA” value came to 30 nm/s.

Regarding `CC(C)(C)OC(=O)N1CC(CCn2c(=O)c3cc(F)ccc3n3c(=S)[nH]nc23)C1` [Compound 86, tert-Butyl 3-(2-(7-fluoro-5-oxo-1-thioxo-1,2-dihydro-[1,2,4]-triazolo[4,3-a]quinazolin-4(5H)-yl)ethyl)azetidine-1-carboxylate], the “PAMPA” value stood at 2290 nm/s.

With `O=C(NCCCn1c(=O)c2cc(F)ccc2n2c(=S)[nH]nc12)C1CCCC1` [Compound 108, N-(3-(7-Fluoro-5-oxo-1-thioxo-1,2-dihydro-[1,2,4]triazolo[4,3-a]-quinazolin-4(5H)-yl)propyl)cyclopentanecarboxamide], the “PAMPA” value is 1550 nm/s.

Regarding `O=C(CN1CCOCC1)NCCCn1c(=O)c2cc(F)ccc2n2c(=S)[nH]nc12` [Compound 118, N-(3-(7-Fluoro-5-oxo-1-thioxo-1,2-dihydro-[1,2,4]triazolo[4,3-a]-quinazolin-4(5H)-yl)propyl)-2-morpholinoacetamide], the “PAMPA” value is below 10 nm/s.

For `O=c1c2cc(F)ccc2n2c(=S)[nH]nc2n1CCc1ccccc1` [Compound 40, 7-Fluoro-4-phenethyl-1-thioxo-2,4-dihydro-[1,2,4]triazolo[4,3-a]quinazolin-5(1H)-one], the “PAMPA” value came to 770 nm/s.

`CC(=O)NCCCn1c(=O)c2cc(F)ccc2n2c(=S)[nH]nc12` [Compound 73, N-(3-(7-Fluoro-5-oxo-1-thioxo-1,2-dihydro-[1,2,4]triazolo[4,3-a]-quinazolin-4(5H)-yl)propyl)acetamide]: the “PAMPA” value amounted to 180 nm/s.

On to `O=c1c2cc(Br)ccc2n2c(=S)[nH]nc2n1CCc1ccccc1` [Compound 41, 7-Bromo-4-phenethyl-1-thioxo-2,4-dihydro-[1,2,4]triazolo[4,3-a]quinazolin-5(1H)-one], for which the “PAMPA” value amounted to 1620 nm/s.

Regarding `Nc1nnc2n(CCc3ccccc3)c(=O)c3cc(F)ccc3n12` [Compound 16, 1-Amino-7-fluoro-4-phenethyl-[1,2,4]triazolo[4,3-a]quinazolin-5(4H)-one], the “PAMPA” value came out at 8850 nm/s.

For the origin of these results see publication PMC7769008 (Journal of medicinal chemistry, 2020).
